In patent EP4741383A1, “COMPOUND AND USE THEREOF AS ANTI-CANCER DRUG” (Tyligand Bioscience (Shanghai) Limited, priority 2023, dated 2025):

molecular target: T1, hERG potassium channel (Homo sapiens, UniProt Q12809); experiment: hERG manual patch-clamp assay in HEK-293 cells; assay type: cell-based; settings: HEK-293 cells stably expressing the hERG potassium channel, HEK-293 cells stably expressing hERG
T1 construct: host or cells: HEK-293
Excerpt: This experiment was a non-GLP trial conducted with reference to GLP guidelines and in accordance with the following technical guidelines: National Medical Products Administration: Technical Guidelines for Non-Clinical Studies of Potential Effects of Drugs on QT Interval Prolongation (2014), and ICH S7B Guidelines for Non-Clinical Evaluation of Potential Drug-Induced Delayed Ventricular Repolarization (QT Interval Prolongation) in Humans (2005).
Sample preparation: the weighed test substance was prepared into a 5 mM or 10 mM stock solution with DMSO, then diluted with DMSO to a 3.33 mM diluent. The stock solution was then diluted with extracellular fluid to prepare a 10 µM working solution, ensuring a DMSO concentration of 0.3%. The solution was sonicated for 20 min. The solubility of the test sample was visually inspected; all concentrations dissolved completely without any visible precipitate.
Preparation of positive control: 3.99 mg Cisapride (positive control) was prepared into a 10 mM stock solution using 807.96 µL DMSO. This stock solution was then successively diluted with DMSO to 1000, 333.33, 33.33, 3.33, and 0.33 µM dilutions. Before testing, 30 µL of each of the last four dilutions was added to 10 mL of extracellular fluid, ensuring a DMSO concentration of 0.3%. The final working solution concentrations of Cisapride were 1000, 100, 10, and 1 nM. Cisapride was visually inspected for solubility; all concentrations dissolved completely without any visible precipitate.
The blank control stock solution (DMSO) should be stored at room temperature. The blank control working solution should be prepared on the same day and stored at room temperature. The test substance and positive control stock solutions should be stored at -20 °C. […]
The hERG activity of the representative compounds of this disclosure was detected using conventional manual patch-clamp techniques in the art (Patch-Clamp Methods and Protocols, 2014, 2nd edition, Humana Press, edited by Marzia Martina and Stefano Taverna).

T1 sequence (Q12809 whole entry): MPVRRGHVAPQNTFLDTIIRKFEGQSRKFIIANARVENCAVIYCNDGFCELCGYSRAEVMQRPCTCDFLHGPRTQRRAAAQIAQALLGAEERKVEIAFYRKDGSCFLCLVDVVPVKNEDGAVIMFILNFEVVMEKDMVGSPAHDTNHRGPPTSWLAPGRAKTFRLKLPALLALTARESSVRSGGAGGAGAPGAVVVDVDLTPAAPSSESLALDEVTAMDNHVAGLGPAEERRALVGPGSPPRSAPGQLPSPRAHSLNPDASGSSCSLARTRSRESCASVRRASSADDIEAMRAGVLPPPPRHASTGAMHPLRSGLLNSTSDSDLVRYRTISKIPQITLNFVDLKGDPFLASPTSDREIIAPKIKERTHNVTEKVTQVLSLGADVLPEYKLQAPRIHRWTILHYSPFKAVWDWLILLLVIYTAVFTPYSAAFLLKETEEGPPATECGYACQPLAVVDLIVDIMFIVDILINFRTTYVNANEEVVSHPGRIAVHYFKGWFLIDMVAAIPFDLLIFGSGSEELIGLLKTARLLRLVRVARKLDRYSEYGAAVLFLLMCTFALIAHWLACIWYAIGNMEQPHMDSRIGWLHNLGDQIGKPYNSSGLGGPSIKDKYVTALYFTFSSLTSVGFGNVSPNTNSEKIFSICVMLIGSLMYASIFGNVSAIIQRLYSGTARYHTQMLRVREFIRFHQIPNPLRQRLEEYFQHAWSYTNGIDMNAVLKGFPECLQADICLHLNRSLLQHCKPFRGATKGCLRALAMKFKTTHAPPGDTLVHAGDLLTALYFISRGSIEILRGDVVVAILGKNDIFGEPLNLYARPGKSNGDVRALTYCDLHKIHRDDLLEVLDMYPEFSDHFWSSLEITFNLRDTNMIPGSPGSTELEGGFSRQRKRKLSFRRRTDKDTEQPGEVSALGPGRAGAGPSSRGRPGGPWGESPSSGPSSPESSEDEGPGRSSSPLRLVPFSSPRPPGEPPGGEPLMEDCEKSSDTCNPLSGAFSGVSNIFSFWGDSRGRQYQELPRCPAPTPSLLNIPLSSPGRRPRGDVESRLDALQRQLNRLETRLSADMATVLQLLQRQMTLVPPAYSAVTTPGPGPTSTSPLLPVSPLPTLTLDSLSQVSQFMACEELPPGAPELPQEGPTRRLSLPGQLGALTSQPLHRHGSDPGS

Structure (SMILES) | inhibition at 10 µM [%]
O=C(Nc1ccc(-c2cc3cc(F)c(-c4nnn[nH]4)cc3n2C2CCC2)cc1)C(=O)Nc1ccc(N2CCC(CO)CC2)cc1 [Example 23] | -0.72
O=C(Nc1ccc(-c2cc3cc(F)c(-c4nnn[nH]4)cc3n2C2CCC2)cc1)C(=O)Nc1ccc(N2CCC3(CCOC3)CC2)cc1 [Example 67] | 16.9
CC1(n2c(-c3ccc(NC(=O)C(=O)Nc4ccc(N5CCC6(CCOC6)CC5)cc4)cc3)cc3cc(F)c(-c4nnn[nH]4)cc32)CCC1 [Example 68] | 8.79
